Assay results taken from patent US5478825A, “5-(substituted amino)-1,2,4-triazolo (1,5-A) pyrimidine derivatives” (Egis Gyogyszergyar, priority 1991, dated 1995).

Legend:
[1] = test system: gastric acid secretion; assay: Gastric acid secretion test; format: in vivo, rat
Method: 8. […] Rats of both sexes (Wistar breed, weighing 180-240 g) were fastened for 48 hours. On the day of the test the pylorus of the animals was bound under ether narcosis. The test compounds were administered orally 3 hours before the operation. 4 hours after the operation the animals were anaesthetized and the stomach was removed, the content thereof was centrifuged and the amount of the free acid was determined by titration, in the presence of Topfer reagent. The inhibition in relation to the control is calculated in percentage.

[2] = test system: hexobarbital narcosis; assay: Narcosis potentiating activity (hexobarbital); format: in vivo, mice; conditions: for Narcosis potentiating effect: 100 mg/kg, orally, frequency of positive reaction, hexobarbital 40 mg/kg i.v.
Method: 6. Narcosis potentiating activity
Groups consisting of 6 mice each were orally treated with the compound to be examined. After one hour, hexobarbital [5-(1-cyclohexenyl)-1,5-dimethylbarbituric acid] was injected intravenously at a dosage of 40 mg/kg. The control group was treated only with hexobarbital to provoke sleep. The duration of sleep was recorded. If the duration of sleep of an animal exceeded that of the mean value of the control group by a factor of 2.5, it was considered as a positive reaction. The frequency of the positive reaction is expressed as the percentage of the value obtained for the control animals.

[3] = test system: motility of mice; assay: Motility inhibiting activity; format: in vivo
Method: 5. Motility inhibiting activity
The tests were performed according to the method of Borsy et al. [Arch. Int. Pharmacodyn. 124, 1-2 (1960)]. Groups consisting of 3 mice each were treated orally with different doses of the compounds to be tested. Then the test animals were placed in a Dews equipment. In this equipment the number of interruptions of infrared beam within 30 minutes was counted. The inhibition is expressed as the percentage of the value obtained for the control animals.

[4] = test system: pentetrazole spasm; assay: Spasmolytic activity on mice (pentetrazole spasm); format: in vivo; conditions: orally; for Inhibition of pentetrazole spasm: 100 mg/kg, pentetrazole 125 mg/kg i.p.
Method: 7. Spasmolytic activity on mice
The tests were carried out according to the modified method of Benzinger and Hane [Arch. Int. Pharmacodyn. 167, 245-249 (1959)]. Mice of both sexes (NMRI breed, body weight 20-25 g) were treated orally with the compounds to be tested. One hour after the administration pentetrazole (6,7,8,9-tetrahydro-5H-tetrazoloazepine) was given intraperitoneally in a dosis of 125 mg/kg. The tonic-extensoric spasms on the hind limbs were registered. As reference compound 3,5,5-trimethyl-oxazolidine-2,4-dione (trimetadione) was used.

SMILES: CN/C(=N/CCSCc1nc[nH]c1C)NC#N [Cimetidine, reference compound]
- Inhibition (gastric acid secretion) ([1]; 200 mg/kg p.o.): 91%

SMILES: CCN(CC)c1c2c(nc3nc(SC)nn13)CCC2 [Example 1, 5-(Diethylamino)-2-(methylthio)-6,7-dihydro-8H-cyclopenta[d]-1,2,4-triazolo[1,5-a]pyrimidine]
- Inhibition (gastric acid secretion) ([1]; 200 mg/kg p.o.): 75%

SMILES: OCCN(CCO)c1c2c(nc3nc(N4CCOCC4)nn13)CCC2 [Example 11, 5-[N-bis(2-Hydroxyethyl)]amino-2-morpholino-6,7-dihydro-8H-cyclopenta[d]-1,2,4-triazolo[1,5-a]pyrimidine]
- Narcosis potentiating effect [2]: 67%

SMILES: C1Cc2nc3nc(N4CCOCC4)nn3c(N3CCOCC3)c2C1 [Example 15, 2,5-Dimorpholino-6,7-dihydro-8H-cyclopenta[d]-1,2,4-triazolo[1,5-a]pyrimidine]
- Change in motility vs control ([3]; 100 mg/kg, orally): -65%
- Inhibition of pentetrazole spasm [4]: -50%

SMILES: CSc1nc2nc3c(c(NCCN4CCOCC4)n2n1)CCCC3 [Example 18, 2-(Methylthio)-5-[N-(2-morpholinoethyl)]amino-6,7,8,9-tetrahydro-1,2,4-triazolo[5,1-b]quinazoline]
- Inhibition of pentetrazole spasm [4]: -56%

SMILES: Cc1cc(N(CCO)Cc2ccccc2)n2nc(N3CCOCC3)nc2n1 [Example 24, 5-[N-Benzyl-N-(2-hydroxyethyl)]amino-7-methyl-2-morpholino-1,2,4-triazolo[1,5-a]pyrimidine]
- Narcosis potentiating effect [2]: 67%

SMILES: CCCC(C)(COC(N)=O)COC(N)=O [Meprobamate, reference compound]
- ED50 ([3]; Mus musculus, po, read-out: ED50 (motility inhibition)): 232 mg/kg
- motility inhibition (in words) ([3]; dose of 100 mg/kg): inactive
- ED50 ([2]; Mus musculus, po, read-out: ED50 (narcosis potentiating effect)): 260 mg/kg
- narcosis potentiating effect (in words) ([2]; dose of 100 mg/kg): inactive

SMILES: CN1C(=O)OC(C)(C)C1=O [Trimetadione, 3,5,5-trimethyl-oxazolidine-2,4-dione, reference compound]
- ED50 ([4]; Mus musculus, po, read-out: ED50 (inhibition of pentetrazole spasm)): 400 mg/kg

SMILES: COc1cc(C(=S)N2CCOCC2)cc(OC)c1OC [Trithiozine, reference compound]
- Inhibition (gastric acid secretion) ([1]; 400 mg/kg p.o.): 63%
